Assay results: patent publication EP0595557A1, “New substituted azetidinones as anti-inflammatory and antidegenerative agents” (MERCK & CO. INC., priority 1992, dated 1994)

Target: T1, Human Polymorphonuclear Leukocyte Elastase (Homo sapiens, UniProt P08246)
T1 construct: Crude extract of human polymorphonuclear leukocytes (PMN) containing elastase activity; from tissue; host or cells: human polymorphonuclear leukocytes (crude extract)
T1 sequence (P08246 30-267): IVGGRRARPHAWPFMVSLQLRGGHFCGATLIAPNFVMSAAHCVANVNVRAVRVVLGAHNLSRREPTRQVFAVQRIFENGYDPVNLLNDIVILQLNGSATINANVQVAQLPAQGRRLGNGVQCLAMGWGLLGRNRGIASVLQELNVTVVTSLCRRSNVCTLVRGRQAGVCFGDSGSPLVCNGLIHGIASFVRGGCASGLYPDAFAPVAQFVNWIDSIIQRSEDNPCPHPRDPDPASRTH
Assay: Enzyme assay for inhibition of human polymorphonuclear leukocyte elastase via hydrolysis of Boc-AAPAN or Boc-AAPVN
Assay type: biochemical
Conditions: pH 7.5, second order rate constant for inactivation of the enzyme, expressed to the nearest thousand, read-out: Kobs/[I]
Description: Enzyme Assays for the Inhibition of Human Polymorphonuclear Leukocyte Elastase Via Hydrolysis of N-t-Boc-alanyl-alanyl-prolylalanine-p-nitroanilide (Boc-AAPAN) or N-t-Boc-alanyl-prolylvaline-p-nitro-anilide (Boc-AAPVN) Reagent:
0.05M TES (N-tris[hydroxymethyl]methyl-2-mino-ethanesulfonic acid) Buffer, pH 7.5.
0.2 mM Boc-AAPAN or Boc-AAPVN.
To prepare substrate, the solid was first dissolved in 10.0 ml DMSO. Buffer at pH 7.5 was then added to a final volume of 100 ml.
Crude extract of human polymorphonuclear leukocytes (PMN) containing elastase activity.
Inhibitors (azetidinones) to be tested dissolved in DMSO just before use.
To 1.0 ml of 0.2 mM Boc-AAPAN in a cuvette, 0.01-0.1 ml of DMSO with or without inhibitor was added. After mixing, a measurement was taken at 410 mµ to detect any spontaneous hydrolysis due to presence of test compound. 0.05 Milliliters of PMN extract was then added and the ΔOD/min at 410 mµ was measured and recorded. Beckman model 35 spectrophotometer was used.
Results were expressed to the nearest thousand ^kobs/I which is the second order rate constant in per mole per second for inactivation of the enzyme.
The elastase activity in the crude PMN extract may vary from one preparation to another. A control of each new batch is run, and the volume added in the assay procedure is adjusted according to activity.

| Structure (SMILES) | kinact/KI |
| --- | --- |
| CCC[C@@H](NC(=O)N1C(=O)C(CC)(CC)[C@@H]1Oc1ccc(C(=O)OCC(=O)N(C)C)cc1)c1ccc(C)cc1 (relative stereo) [Compound 6, 2-(dimethylamino)-2-oxoethyl, (S-(R*,S*))-4-((3,3-Diethyl-1-(((1-(4-methyl-phenyl)butyl)amino)carbonyl)-4-oxo-2-azetidinyl)oxy)-benzoate] | 3e+06 M⁻¹ s⁻¹ |
| CCC[C@@H](NC(=O)N1C(=O)C(CC)(CC)[C@@H]1Oc1ccc(C(=O)OCCN(C)C(C)=O)cc1)c1ccc(C)cc1 (relative stereo) [Compound 7, 2-(N-methylacetamido)ethyl. {2-(R*,S*)}-4-{{3,3-Diethyl-1-{{{1-(4-methyl-phenyl)butyl}amino}carbonyl}-4-oxo-2-azetidinyl}oxy}-benzoate] | 1.56e+06 M⁻¹ s⁻¹ |
| CCC[C@@H](NC(=O)N1C(=O)C(CC)(CC)[C@@H]1Oc1ccc(C(=O)OCC(=O)N2CCC[C@H]2C(=O)O)cc1)c1ccc(C)cc1 (relative stereo) [Compound 9, (S(R*,S*))-1-(((4-((3,3-diethyl-1-(((1-(4-methylphenyl)butyl)amino)carbonyl)-4-oxo-2-azetidinyl)oxy)benzoyl)oxy)acetyl) L-proline] | 1.57e+06 M⁻¹ s⁻¹ |
| CCC[C@@H](NC(=O)N1C(=O)C(CC)(CC)[C@@H]1Oc1ccc(C(=O)O[C@@H](C)C(=O)OCc2ccccc2)cc1)c1ccc(C)cc1 (relative stereo) [Compound 10, 1-Methyl-2-oxo-2-(phenylmethoxy)ethyl(2S-(1(S*),R*,(R)))-4-((3,3-diethyl-1-(((1-(4-methylphenyl)butyl)amino)carbonyl)-4-oxo-2-azetidinyl)oxy) benzoate] | 2.89e+06 M⁻¹ s⁻¹ |
| CCC[C@@H](NC(=O)N1C(=O)C(CC)(CC)[C@@H]1Oc1ccc(C(=O)N2CCN(C3CC3)CC2)cc1)c1ccc(C)cc1 (relative stereo) [Compound 256, [S(R*,S*)]-2-[4-[[(4-Cyclopropyl)piperazin-1-yl]carbonyl]phenoxy]-((3,3-diethyl-N-[1-(4-methylphenyl)butyl]-4-oxo-1-azetidinecarboxamide] | 3.59e+06 M⁻¹ s⁻¹ |
| CCC[C@@H](NC(=O)N1C(=O)C(CC)(CC)[C@@H]1Oc1cc(C)c(C(=O)OCCN(C)C)c(C)c1)c1ccc(C)cc1 (relative stereo) [Compound 304, 2-(dimethylamino)ethyl [S,(R*,S*)]-4-[[3,3-diethyl-1-[[[1-(4-methylphenyl)butyl]amino]carbonyl]-4-oxo-2-azetidinyl]oxy]-2,6-dimethyl-benzoate] | 563000 M⁻¹ s⁻¹ |
| CCCC(NC(=O)N1C(=O)C(CC)(CC)C1Oc1ccc(C(=O)OCCN(C)C)cc1)c1ccc(C)cc1 (stereo not drawn) [Compound 1, 2-(dimethylamino)ethyl (S-(R*,S*))-4-((3,3-diethyl-1-(((1-(4-methyl-phenyl)butyl)amino)carbonyl)-4-oxo-2-azetidinyl)oxy)benzoate] | 1.57e+06 M⁻¹ s⁻¹ |
| CCCC(NC(=O)N1C(=O)C(CC)(CC)C1Oc1ccc(C(=O)OCC(=O)O)cc1)c1ccc(C)cc1 (stereo not drawn) [Compound 2, Carboxymethyl [S-(R*,S*)]4-((3,3-diethyl-1-(((1-(4-methyl-phenyl)butyl)amino)carbonyl)-4-oxo-2-azetidinyl)oxy)benzoate] | 1.67e+06 M⁻¹ s⁻¹ |
| CCCC(NC(=O)N1C(=O)C(CC)(CC)C1Oc1ccc(C(=O)OCC(=O)N(CCO)CCO)cc1)c1ccc(C)cc1 (stereo not drawn) [Compound 3, 2-(bis(2-hydroxyethyl)amino)-2-oxoethyl(S-(R*,S*))-4-((3,3-diethyl-1-(((1-(4-methyl-phenyl)butyl)amino)carbonyl)-4-oxo-2-azetidinyl)oxy) benzoate] | 3.43e+06 M⁻¹ s⁻¹ |
| CCC[C@@H](NC(=O)N1C(=O)C(CC)(CC)[C@@H]1Oc1ccc(C(=O)OCC(=O)N(C)CC(N)=O)cc1)c1ccc(C)cc1 [Compound 4] | 4.29e+06 M⁻¹ s⁻¹ |
| CCC[C@@H](NC(=O)N1C(=O)C(CC)(CC)[C@@H]1Oc1ccc(C(=O)OCC(=O)NC(CO)(CO)CO)cc1)c1ccc(C)cc1 [Compound 5] | 4.45e+06 M⁻¹ s⁻¹ |
| CCC[C@@H](NC(=O)N1C(=O)C(CC)(CC)[C@@H]1Oc1ccc(C(=O)OCC(=O)N2CCC[C@H]2C(=O)OCc2ccccc2)cc1)c1ccc(C)cc1 [Compound 8] | 1.25e+07 M⁻¹ s⁻¹ |
